Measurements from ChEMBL document CHEMBL1201862, “PubChem BioAssay data set” (2004).
The source made the active and inactive calls.

What was measured:
[1] = luciferase reporter signal suppression in cells – H4 neuroglioma cells, luminescence, dose response (AID 1990); assay type: functional, cell-based
BJ [2] = test: BJ-TERT fibroblast viability loss – cell-based, RAS-independent, luminescence, dose response (AID 1933); assay type: functional; conditions: Homo sapiens
[3] = Luminescence Cell-Based Dose Response HTS to Identify Inhibitors of 5'UTR Stem-Loop Driven Prion Protein mRNA Translation in H4 Neuroglioblastoma Cells. [Related pubchem assays: 1827 (Project Summary), 1813 (Primary HTS)]; assay type: functional
Vero = test: mammalian cell viability reduction – secondary assay, cytotoxicity control for West Nile virus antiviral project, dose response (AID 1650); assay type: functional; conditions: Chlorocebus sabaeus
[4] = alpha-synuclein stem-loop luciferase translation blockers – H4 neuroglioma cells, luminescence, confirmation (AID 1988); assay type: functional, cell-based
BJ [5] = test: cells; assay type: functional, cell-based; conditions: Homo sapiens
[6] = biological target: Mothers against decapentaplegic homolog 3 (Homo sapiens, UniProt P84022); test: inhibitors of SMAD-driven TGF-beta signaling – dose response (AID 715); assay type: functional
BJ [7] = test: BJ-TERT-LT-ST fibroblast viability loss – cell-based, RAS-independent, luminescence, dose response (AID 1935); assay type: functional; conditions: Homo sapiens;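 further: BJ fibroblasts immortalized with TERT plus LT and ST oncogenes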
[8] = DRD fibroblast viability loss – cell-based, non-viral oncogenic, luminescence, dose response (AID 1934); assay type: functional; conditions: Homo sapiens
HEK293 = test: EBV LMP1 TES2 canonical NF-kB signalling blockers – cell-based, HEK293, luciferase, cherry-pick, dose response (AID 588343); assay type: functional; conditions: Homo sapiens
[9] = biological target: T1, Apoptotic protease-activating factor 1 (Homo sapiens, UniProt O14727); assay type: functional
T1 sequence (O14727 whole entry): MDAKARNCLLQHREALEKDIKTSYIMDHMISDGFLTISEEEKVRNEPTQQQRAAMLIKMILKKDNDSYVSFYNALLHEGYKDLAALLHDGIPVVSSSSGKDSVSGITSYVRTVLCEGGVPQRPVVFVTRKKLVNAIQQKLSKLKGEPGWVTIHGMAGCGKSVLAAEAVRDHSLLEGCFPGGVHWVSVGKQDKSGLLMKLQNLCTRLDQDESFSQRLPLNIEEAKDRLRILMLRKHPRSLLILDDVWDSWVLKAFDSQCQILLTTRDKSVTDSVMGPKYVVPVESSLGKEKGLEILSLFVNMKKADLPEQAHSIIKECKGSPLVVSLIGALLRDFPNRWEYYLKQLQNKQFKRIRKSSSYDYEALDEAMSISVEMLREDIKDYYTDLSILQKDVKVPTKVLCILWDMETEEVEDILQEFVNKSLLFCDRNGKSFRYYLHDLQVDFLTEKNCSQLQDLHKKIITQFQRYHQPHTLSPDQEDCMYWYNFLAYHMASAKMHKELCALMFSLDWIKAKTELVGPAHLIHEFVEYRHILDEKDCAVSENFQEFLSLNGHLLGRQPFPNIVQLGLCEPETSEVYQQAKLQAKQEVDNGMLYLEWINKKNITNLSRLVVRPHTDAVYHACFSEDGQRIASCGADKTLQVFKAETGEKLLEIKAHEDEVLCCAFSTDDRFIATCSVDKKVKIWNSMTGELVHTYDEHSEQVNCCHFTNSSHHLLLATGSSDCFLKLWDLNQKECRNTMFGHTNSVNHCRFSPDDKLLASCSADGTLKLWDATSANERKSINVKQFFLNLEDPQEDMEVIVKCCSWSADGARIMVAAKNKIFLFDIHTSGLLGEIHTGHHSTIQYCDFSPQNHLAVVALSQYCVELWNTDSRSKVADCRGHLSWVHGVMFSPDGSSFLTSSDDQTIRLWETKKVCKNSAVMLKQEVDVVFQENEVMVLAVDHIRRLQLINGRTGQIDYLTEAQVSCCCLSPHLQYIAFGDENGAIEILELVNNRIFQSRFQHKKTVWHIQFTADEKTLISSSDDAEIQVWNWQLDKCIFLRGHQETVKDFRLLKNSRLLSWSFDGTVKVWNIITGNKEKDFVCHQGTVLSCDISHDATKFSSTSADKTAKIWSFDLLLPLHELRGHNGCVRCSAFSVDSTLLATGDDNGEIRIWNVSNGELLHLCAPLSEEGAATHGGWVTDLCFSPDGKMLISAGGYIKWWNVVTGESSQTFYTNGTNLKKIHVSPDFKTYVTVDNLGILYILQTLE

[10] = biological target: Latent membrane protein 1 (Human herpesvirus 4 (strain B95-8), UniProt P03230); test: LMP1 TES1 pathway selectivity over dsRED control – imaging, HEK293T, dual-color eGFP/dsRED, cherry-picks, selectivity assay for LMP1 NF-kB inhibitor project, dose response (AID 588398); assay type: functional, cell-based
BJ [11] = test: growth inhibition of engineered Ras-driven BJ cells – cell-based, alamar blue fluorescence, cherrypicked samples, dose response (AID 2631); assay type: functional; conditions: Homo sapiens;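 further: confirmatory dose-response assay in RAS-dependent BJ fibroblasts engineered with TERT, LT and ST, with cytotoxicity read by fluorescence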
[12] = reduction of Shn3 3'UTR-driven luciferase in osteoblasts – cell-based, Clone20 osteoblasts, firefly luciferase, cherry-picked, dose response (AID 624132); assay type: functional;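 further: firefly luciferase luminescence from reporter carrying the Shn3 3'UTR in osteoblasts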
[13] = loss of viability in HepG2 cells – cell-based, CellTiter-Glo, cherry-picked, cytotoxicity control for Shn3 inhibitor project, dose response (AID 624134); assay type: functional
[14] = non-specific 3'UTR reporter inhibition in Clone20-Shn3RL – cell-based, Renilla luciferase, cherry-picked, counter-screen for Shn3 inhibitor project, dose response (AID 624133); assay type: functional
[15] = reduced cellular PGC1a acetyl-lysine signal – cell-based, cherry-picked samples, dose response (AID 720514); assay type: functional;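 further: potency may reflect raised or lowered acetylation signal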
[16] = Mcl1-dependent cancer cell viability – HMC-1-8 cells, luminescence, dry powder, selectivity assay for A1 inhibitor project, dose response (AID 504415); assay type: functional, cell-based; conditions: Homo sapiens
[17] = biological target: T2, Sentrin-specific protease 8 (Homo sapiens, UniProt Q96LD8); test: inhibition of human SENP8 cleavage activity – biochemical, luminescence, SAR follow-up (AID 504501); assay type: functional
T2 sequence (Q96LD8 whole entry): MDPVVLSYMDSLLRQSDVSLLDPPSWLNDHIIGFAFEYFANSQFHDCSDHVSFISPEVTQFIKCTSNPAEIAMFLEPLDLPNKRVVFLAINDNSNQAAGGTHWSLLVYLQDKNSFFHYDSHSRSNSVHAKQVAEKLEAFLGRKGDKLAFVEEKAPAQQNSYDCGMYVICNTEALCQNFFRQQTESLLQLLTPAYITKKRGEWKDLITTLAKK

Caspase-3 [18] = biological target: T3, Caspase-3 (Homo sapiens, UniProt P42574); test: inhibition of recombinant caspase-3 activity – biochemical, luminescence, set 2, selectivity assay for SENP protease inhibitor project, SAR follow-up (AID 588599); assay type: functional
T3 sequence (P42574 whole entry): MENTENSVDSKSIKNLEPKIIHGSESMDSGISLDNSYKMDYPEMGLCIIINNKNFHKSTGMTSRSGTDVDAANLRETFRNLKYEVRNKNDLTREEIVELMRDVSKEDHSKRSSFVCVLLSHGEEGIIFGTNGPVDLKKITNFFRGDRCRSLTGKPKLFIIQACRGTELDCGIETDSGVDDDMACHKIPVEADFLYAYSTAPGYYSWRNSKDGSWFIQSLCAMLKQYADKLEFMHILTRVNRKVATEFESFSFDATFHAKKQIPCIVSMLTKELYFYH

[19] = biological target: T2, Sentrin-specific protease 8; test: inhibition of sentrin protease 8 – biochemical, luminescence, set 2, SAR follow-up (AID 588601); assay type: functional
Caspase-3 [20] = biological target: T3, Caspase-3; test: SAR Analysis of small molecule inhibitors of Sentrin-specific proteases (SENPs) using a Caspase-3 Selectivity assay. [Related pubchem assays (depositor defined):AID2540, AID2599, AID434973, AID489001]; assay type: functional
[21] = biological target: T4, Sentrin-specific protease 7 (Homo sapiens, UniProt Q9BQF6); test: inhibition of human SENP7 cleavage activity – biochemical, luminescence, set 2, SAR follow-up (AID 588600); assay type: functional
T4 sequence (Q9BQF6 whole entry): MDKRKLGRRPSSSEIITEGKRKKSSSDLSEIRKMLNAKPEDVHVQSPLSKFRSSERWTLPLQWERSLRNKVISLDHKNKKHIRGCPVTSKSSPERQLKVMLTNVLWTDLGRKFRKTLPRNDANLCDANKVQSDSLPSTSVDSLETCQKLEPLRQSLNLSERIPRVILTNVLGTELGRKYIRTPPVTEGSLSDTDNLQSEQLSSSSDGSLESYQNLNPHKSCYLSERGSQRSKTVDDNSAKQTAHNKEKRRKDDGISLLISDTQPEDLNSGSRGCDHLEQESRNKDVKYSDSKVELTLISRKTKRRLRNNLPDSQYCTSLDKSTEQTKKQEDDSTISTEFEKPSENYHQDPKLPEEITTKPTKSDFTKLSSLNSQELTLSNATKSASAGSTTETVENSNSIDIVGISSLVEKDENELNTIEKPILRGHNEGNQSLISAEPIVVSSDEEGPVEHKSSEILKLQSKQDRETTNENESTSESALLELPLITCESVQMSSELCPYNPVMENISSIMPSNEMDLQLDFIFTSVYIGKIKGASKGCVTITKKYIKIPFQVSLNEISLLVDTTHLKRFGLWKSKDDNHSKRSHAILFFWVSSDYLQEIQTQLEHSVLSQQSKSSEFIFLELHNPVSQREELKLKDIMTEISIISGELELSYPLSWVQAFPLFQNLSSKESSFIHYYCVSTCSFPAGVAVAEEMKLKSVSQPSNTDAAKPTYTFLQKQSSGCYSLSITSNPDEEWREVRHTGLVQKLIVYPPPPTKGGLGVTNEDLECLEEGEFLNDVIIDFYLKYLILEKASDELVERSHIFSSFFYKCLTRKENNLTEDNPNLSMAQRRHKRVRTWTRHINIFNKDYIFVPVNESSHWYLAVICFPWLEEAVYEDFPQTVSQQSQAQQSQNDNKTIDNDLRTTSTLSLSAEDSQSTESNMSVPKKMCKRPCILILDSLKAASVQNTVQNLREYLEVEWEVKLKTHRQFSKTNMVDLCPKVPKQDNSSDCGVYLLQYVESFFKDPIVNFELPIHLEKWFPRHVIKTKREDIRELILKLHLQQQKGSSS

[22] = biological target: T5, Sentrin-specific protease 6 (Homo sapiens, UniProt Q9GZR1); test: SAR Analysis of small molecule inhibitors of Sentrin-specific protease 6 (SENP6) using a Luminescent assay. [Related pubchem assays (depositor defined):AID2582, AID2599]; assay type: functional
T5 sequence (Q9GZR1 whole entry): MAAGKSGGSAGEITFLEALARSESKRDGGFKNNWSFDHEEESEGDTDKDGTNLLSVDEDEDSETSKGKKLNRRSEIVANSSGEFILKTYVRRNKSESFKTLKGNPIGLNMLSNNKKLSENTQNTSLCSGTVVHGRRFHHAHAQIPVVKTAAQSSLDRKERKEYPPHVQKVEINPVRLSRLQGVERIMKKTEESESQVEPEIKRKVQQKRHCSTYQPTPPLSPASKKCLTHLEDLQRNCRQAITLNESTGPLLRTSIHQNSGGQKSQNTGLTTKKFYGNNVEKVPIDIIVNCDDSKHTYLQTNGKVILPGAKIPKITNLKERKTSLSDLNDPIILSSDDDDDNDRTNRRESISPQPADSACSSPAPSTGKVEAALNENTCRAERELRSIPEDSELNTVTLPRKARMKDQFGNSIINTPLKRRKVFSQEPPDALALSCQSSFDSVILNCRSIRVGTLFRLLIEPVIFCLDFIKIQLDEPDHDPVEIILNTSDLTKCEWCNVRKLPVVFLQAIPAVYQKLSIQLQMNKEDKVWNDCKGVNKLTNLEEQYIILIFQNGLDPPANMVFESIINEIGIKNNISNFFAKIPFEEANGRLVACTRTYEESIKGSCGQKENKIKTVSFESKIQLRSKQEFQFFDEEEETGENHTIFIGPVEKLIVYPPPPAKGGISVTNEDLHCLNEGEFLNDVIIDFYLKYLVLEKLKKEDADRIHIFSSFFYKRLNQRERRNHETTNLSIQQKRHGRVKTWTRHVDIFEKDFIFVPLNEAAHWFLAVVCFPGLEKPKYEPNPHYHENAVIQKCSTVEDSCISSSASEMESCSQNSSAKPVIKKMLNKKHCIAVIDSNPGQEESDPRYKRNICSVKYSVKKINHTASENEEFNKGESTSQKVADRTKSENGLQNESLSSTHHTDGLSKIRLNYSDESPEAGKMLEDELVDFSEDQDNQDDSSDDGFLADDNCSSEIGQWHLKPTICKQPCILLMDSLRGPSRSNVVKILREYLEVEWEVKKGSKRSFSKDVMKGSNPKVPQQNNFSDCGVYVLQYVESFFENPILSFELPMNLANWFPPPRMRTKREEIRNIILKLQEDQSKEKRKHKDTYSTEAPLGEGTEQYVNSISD

[23] = biological target: T5, Sentrin-specific protease 6; test: inhibition of human SENP6 catalytic domain – biochemical, luminescence, set 2, SAR follow-up (AID 588598); assay type: functional
[24] = biological target: T4, Sentrin-specific protease 7; test: inhibition of human SENP7 cleavage activity – biochemical, luminescence, SAR follow-up (AID 504497); assay type: functional

Mothers against decapentaplegic homolog 3, sequence (P84022 whole entry): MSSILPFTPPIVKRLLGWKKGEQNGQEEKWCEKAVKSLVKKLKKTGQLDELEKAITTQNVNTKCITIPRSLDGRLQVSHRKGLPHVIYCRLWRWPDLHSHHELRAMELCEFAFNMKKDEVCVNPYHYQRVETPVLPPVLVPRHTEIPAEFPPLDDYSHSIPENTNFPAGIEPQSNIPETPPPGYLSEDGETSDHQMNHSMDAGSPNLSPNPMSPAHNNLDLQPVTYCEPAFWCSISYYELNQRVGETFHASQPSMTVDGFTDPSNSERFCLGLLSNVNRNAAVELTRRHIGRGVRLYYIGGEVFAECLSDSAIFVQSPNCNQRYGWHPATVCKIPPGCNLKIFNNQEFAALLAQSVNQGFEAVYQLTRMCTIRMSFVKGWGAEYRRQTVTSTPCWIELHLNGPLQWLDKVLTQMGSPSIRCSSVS
Latent membrane protein 1, sequence (P03230 whole entry): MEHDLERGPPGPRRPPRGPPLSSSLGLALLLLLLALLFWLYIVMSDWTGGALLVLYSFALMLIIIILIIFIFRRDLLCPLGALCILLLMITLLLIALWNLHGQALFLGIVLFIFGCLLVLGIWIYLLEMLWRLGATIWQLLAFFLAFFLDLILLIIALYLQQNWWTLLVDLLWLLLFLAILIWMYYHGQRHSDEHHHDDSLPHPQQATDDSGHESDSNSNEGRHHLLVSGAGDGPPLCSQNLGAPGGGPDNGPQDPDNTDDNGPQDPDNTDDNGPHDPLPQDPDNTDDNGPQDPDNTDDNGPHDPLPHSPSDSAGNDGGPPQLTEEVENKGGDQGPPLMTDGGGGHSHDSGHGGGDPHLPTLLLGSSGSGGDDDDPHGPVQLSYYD

Compound: CCOC(=O)c1c2c(n(C)c1C)C(=O)C(=O)c1ccc(Br)cc1-2
- EC50 [1]: 6.23 µM (active)
- EC50 (BJ [2]): 4.88 µM (active)
- EC50 [3]: 8.25 µM (active)
- CC50 (Vero): 6.53 µM (active)
- EC50 [4]: 3.58 µM (active)
- EC50 (BJ [5]): 8.06 µM (inconclusive)
- IC50 [6]: 10.4 µM (active)
- EC50 (BJ [7]): 5.56 µM (inconclusive)
- EC50 [8]: 5.41 µM (active)
- AC50 (HEK293): 2.51 µM (active)
- IC50 [9]: 0.797 µM (active)
- AC50 [10]: 41.1 µM (active)
- EC50 (BJ [11]): 0.52 µM (active)
- AC50 [12]: 1.01 µM (active)
- AC50 [13]: 3.95 µM (active)
- AC50 [14]: 1.6 µM (active)
- AC50 [15]: 4.34 µM (active)

Compound: O=c1oc2ccccc2c(Nc2cc(Cl)cc(Cl)c2)c1[N+](=O)[O-]
- AC50 [16]: 31.2 µM (active)

Compound: Fc1cccc(F)c1-c1nc(/C=C/c2ccccc2)no1
- IC50 [17]: 15 µM (active)
- IC50 (Caspase-3 [18]): 18 µM (active)
- IC50 [19]: 6.98 µM (active)
- IC50 (Caspase-3 [20]): 20 µM (active)
- IC50 [21]: 8.02 µM (active)
- IC50 [22]: 14 µM (active)
- IC50 [23]: 6.72 µM (active)
- IC50 [24]: 5.5 µM (active)
